# Reference: article PMC9864331, “Biosynthesis of α-Bisabolol by Farnesyl Diphosphate Synthase and α-Bisabolol Synthase and Their Related Transcription Factors in Matricaria recutita L” (International Journal of Molecular Sciences, 2023)
# Target: T1, MrBBS (Matricaria chamomilla, UniProt A0A0A0RIB3)
# T1 construct: pCold TF (trigger factor) fusion, E. coli BL21(DE3) pLysS; assayed as crude enzyme
# T1 sequence (A0A0A0RIB3 1-572): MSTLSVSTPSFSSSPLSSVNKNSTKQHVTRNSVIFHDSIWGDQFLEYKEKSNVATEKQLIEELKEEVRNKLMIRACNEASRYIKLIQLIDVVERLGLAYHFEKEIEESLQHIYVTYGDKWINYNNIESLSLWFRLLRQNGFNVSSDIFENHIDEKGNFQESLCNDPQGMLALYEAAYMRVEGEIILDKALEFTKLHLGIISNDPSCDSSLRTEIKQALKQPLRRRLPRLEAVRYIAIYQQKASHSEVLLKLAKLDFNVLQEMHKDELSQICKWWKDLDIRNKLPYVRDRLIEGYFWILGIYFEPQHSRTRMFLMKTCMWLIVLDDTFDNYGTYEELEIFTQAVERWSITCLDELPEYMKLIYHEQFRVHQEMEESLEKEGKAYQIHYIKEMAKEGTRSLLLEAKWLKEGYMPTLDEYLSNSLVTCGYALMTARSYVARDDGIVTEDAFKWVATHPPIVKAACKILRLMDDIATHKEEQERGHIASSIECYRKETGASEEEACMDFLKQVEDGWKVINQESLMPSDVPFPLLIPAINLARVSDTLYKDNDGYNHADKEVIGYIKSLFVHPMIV
# Test: GC-MS of hexane-extracted products
# Format: biochemical
# Conditions: 100 µM FPP; 50 mM Tris-HCl pH 7.5; 10 mM MgCl2; 20 µg crude enzyme; product alpha-bisabolol
smiles,measurement,value
CC(C)=CCC/C(C)=C/CC/C(C)=C/COP(=O)(O)OP(=O)(O)O [FPP],GC-MS of hexane-extracted products,MrBBS catalyzed the conversion of FPP into α-bisabolol
